This note sets out measurements from article PMC6403309, “Hybrid approach to sieve out natural compounds against dual targets in Alzheimer’s Disease” (Scientific Reports, 2019).

Read-outs that look alike come from different tables or passages of the source.

In one test the target is T1, Aβ25–35 (Homo sapiens, UniProt P05067).
T1 construct: Aβ25–35 was bought from Anaspec in powdered form; purchased Anaspec
Briefly: Thioflavin T assay of Aβ25–35 aggregation. It counts as biochemical. The following applies: compound 100 µM co-incubated with Aβ25–35 100 µM, 72 hours, 37 °C. As to the method: The dye Thioflavin T (ThT), is used to quantify amyloid aggregates. On binding to the beta sheets of amyloid aggregates, the rotation of the ThT rings is hampered thus preserving the excited states leading to fluorescence enhancement. The Aβ25–35 sample was prepared by dissolving it in HFIP to remove any preformed aggregates and keeping aliquots at −80 °C. On the day of assay, aliquot of the HFIP dissolved Aβ25–35 (final concentration 100 µM) was lyophilized. Thereafter the lyophilized sample was dissolved in phosphate buffer. A stock solution of the compounds with concentration of 1 mM was prepared in DMSO. The compounds with final concentration of 100 µM were co-incubated with Aβ25–35 for 72 hours at 37 °C. The co-incubated samples were diluted five times. A stock solution of Thioflavin T was prepared in DMSO and final concentration of 15 µM was added. The fluorescence was measured by excitation at 440 nm and emission at 460–550 nm.

The target of the next test is T2, BACE1 (Homo sapiens, UniProt P56817).
T2 construct: purchased Sigma Aldrich
T2 sequence (P56817 46-501): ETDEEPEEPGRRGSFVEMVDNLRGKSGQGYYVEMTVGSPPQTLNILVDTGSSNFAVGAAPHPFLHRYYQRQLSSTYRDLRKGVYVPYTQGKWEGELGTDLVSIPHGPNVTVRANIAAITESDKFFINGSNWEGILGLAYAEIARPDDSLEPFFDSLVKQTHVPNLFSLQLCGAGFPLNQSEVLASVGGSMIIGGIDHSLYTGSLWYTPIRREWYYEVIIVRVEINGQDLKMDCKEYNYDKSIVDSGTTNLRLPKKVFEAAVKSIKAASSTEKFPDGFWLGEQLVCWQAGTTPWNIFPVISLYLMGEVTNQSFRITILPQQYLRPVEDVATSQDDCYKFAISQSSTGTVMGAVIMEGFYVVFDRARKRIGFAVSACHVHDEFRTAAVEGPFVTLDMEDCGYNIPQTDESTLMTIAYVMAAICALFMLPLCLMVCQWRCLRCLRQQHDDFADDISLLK
Briefly: BACE1 inhibition assay (FRET activity assay kit). The following applies: for inhibition at 1 µM: read-out: Single point inhibition % (SPI1μM). The test is classed as biochemical.

As for `COC(=O)C(Cc1ccccc1)NC(=O)COc1cc(O)c2c(=O)c(-c3ccc4c(c3)OCCO4)coc2c1` (stereo not shown) [ZINC01758814], at Aβ25–35, the “reduction in the fibril formation” value is “more than 50%”. The “BACE1 inhibition activity (in words)” value on BACE1 (compound 1 µM) was “moderate BACE1 inhibition activity”. Further, the inhibition (usually the change of the read-out against control, counted positive when it falls) at 1 µM on BACE1 (compound 1 µM, 37 °C, 2 hours) came to 17%.
On to `O=c1c(O)c(-c2ccc(O)c(O)c2)oc2c(O)c(O)cc(O)c12` [Gossypetin, reference compound], for which the inhibition at 1 µM on BACE1 turned out to be 4.6%.
